Target: T1, LCAT (Homo sapiens, UniProt P04180)
T1 construct: The obtained fraction was dialyzed against phosphate-buffered saline (pH 7.4) and used as an enzyme source and an acceptor for LCAT; from tissue; host or cells: HDL3 fraction (1.125<specific gravity<1.210 g/mL) of plasma from a healthy person
T1 sequence (P04180 25-440): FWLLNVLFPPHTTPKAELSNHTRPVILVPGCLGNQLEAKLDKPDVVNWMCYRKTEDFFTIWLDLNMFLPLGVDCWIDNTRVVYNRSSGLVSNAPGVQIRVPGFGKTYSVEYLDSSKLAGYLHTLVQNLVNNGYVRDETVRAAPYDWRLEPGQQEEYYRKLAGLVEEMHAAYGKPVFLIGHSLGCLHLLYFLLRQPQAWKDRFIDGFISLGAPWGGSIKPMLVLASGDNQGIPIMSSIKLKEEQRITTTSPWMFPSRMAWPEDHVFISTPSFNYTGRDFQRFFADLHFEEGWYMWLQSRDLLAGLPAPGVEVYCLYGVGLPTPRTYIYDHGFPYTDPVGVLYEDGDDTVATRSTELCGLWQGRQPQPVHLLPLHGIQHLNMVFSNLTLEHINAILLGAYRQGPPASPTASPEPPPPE
Assay: LCAT Activity Measurement (In Vitro)
Type: biochemical
Conditions: EC50 of LCAT activation; HDL3 fraction from plasma of a healthy person as enzyme source and acceptor; [14C]cholesterol; 37° C., approximately 16 hours
Description: A fraction composed of HDL3 (1.125<specific gravity<1.210 g/mL) was obtained from the plasma of a healthy person by density gradient centrifugation. The obtained fraction was dialyzed against phosphate-buffered saline (pH 7.4) and used as an enzyme source and an acceptor for LCAT. Each test drug was prepared by dissolution in dimethyl sulfoxide. [14C]Cholesterol containing DTNB (Ellman's reagent, final concentration: 0.5 mM), mercaptoethanol (final concentration: 12.5 mM), and 0.6% bovine serum albumin was added to phosphate-buffered saline (pH 7.4) containing 1 mg/mL HDL3, and the test drug was further added thereto at varying concentrations to adjust the whole amount to 80 μL. This mixture was incubated at 37° C. for approximately 16 hours. Then, a mixed solution of hexane and isopropanol (mixing ratio=3:2) was added thereto to stop the reaction. After stirring, the hexane layer was collected, and this layer was evaporated to dryness. A chloroform solution (concentration: 10 mg/mL) was added thereto, and the mixture was spotted onto a thin-layer silica gel plate and developed using a mixed solution of hexane, diethyl ether, and ethyl acetate (mixing ratio=85:15:2). The radioactivity of a portion corresponding to cholesterol oleate was measured using an imaging analyzer BAS-2500 (manufactured by Fujifilm Corp.). A sample non-supplemented with the test drug was similarly treated and assayed. The EC50 value of LCAT activation was calculated according to the expression given below relative to LCAT activity in the sample non-supplemented with the test drug.
wherein X represents the logarithm of the concentration of the test drug;
Y represents the responsiveness (LCAT activity) of the test drug;
Top represents the maximum value (maximum plateau);
Bottom represents the minimum value (minimum plateau); and
EC50 represents the 50% effective concentration.

Row | Structure (SMILES) | EC50
1 | N#Cc1ccc(N2CCC(c3n[nH]c4c3C(O)(C(F)(F)F)CC(=O)N4)CC2)cc1 (stereo not drawn) [Example 35, 4-{4-[4-Hydroxy-6-oxo-4-(trifluoromethyl)-4,5,6,7-tetrahydro-1H-pyrazolo[3,4-b]pyridin-3-yl]piperidin-1-yl}benzonitrile] | 380 nM
2 | O=C1CC(O)(C(F)(F)F)c2c(C3CCN(c4ccc(C(F)(F)F)c(Cl)n4)CC3)n[nH]c2N1 (stereo not drawn) [Compound 98-a, 3-{1-[6-Chloro-5-(trifluoromethyl)pyridin-2-yl]piperidin-4-yl}-4-hydroxy-4-(trifluoromethyl)-1,4,5,7-tetrahydro-6H-pyrazolo[3,4-b]pyridin-6-one] | 23 nM
3 | O=C1CC(O)(C(F)(F)F)c2c(C3CCN(c4ccccn4)CC3)n[nH]c2N1 (stereo not drawn) [Example 2, 4-Hydroxy-3-[1-(pyridin-2-yl)piperidin-4-yl]-4-(trifluoromethyl)-1,4,5,7-tetrahydro-6H-pyrazolo[3,4-b]pyridin-6-one] | 520 nM
4 | N#Cc1nc(N2CCC(c3n[nH]c4c3C(O)(C(F)(F)F)CC(=O)N4)CC2)ccc1C(F)(F)F (stereo not drawn) [Example 94, 6-{4-[4-Hydroxy-6-oxo-4-(trifluoromethyl)-4,5,6,7-tetrahydro-1H-pyrazolo[3,4-b]pyridin-3-yl]piperidin-1-yl}-3-(trifluoro)pyridine-2-carbonitrile] | 15 nM
5 | O=C1CC(O)(C(F)(F)F)c2c(C3CCN(c4ccc(OC(F)F)cn4)CC3)n[nH]c2N1 (stereo not drawn) [Example 51, 3-{1-[5-(Difluoromethoxy)pyridin-2-yl]piperidin-4-yl}-4-hydroxy-4-(trifluoromethyl)-1,4,5,7-tetrahydro-6H-pyrazolo[3,4-b]pyridin-6-one] | 81 nM
6 | N#Cc1cc(N2CCC(c3n[nH]c4c3C(O)(C(F)(F)F)CC(=O)N4)CC2)ccc1OC(F)F (stereo not drawn) [Example 60, 2-(Difluoromethoxy)-5-{4-[4-hydroxy-6-oxo-4-(trifluoromethyl)-4,5,6,7-tetrahydro-1H-pyrazolo[3,4-b]pyridin-3-yl]piperidin-1-yl}benzonitrile] | 21 nM
7 | O=C1CC(O)(C(F)(F)F)c2c(C3CCN(c4cc(C(F)(F)F)ccn4)CC3)n[nH]c2N1 (stereo not drawn) [Example 13, 4-Hydroxy-4-(trifluoromethyl)-3-{1-[4-(trifluoromethyl)pyridin-2-yl]piperidin-4-yl}-1,4,5,7-tetrahydro-6H-pyrazolo[3,4-b]pyridin-6-one] | 56 nM
8 | N#Cc1cc(C(F)(F)F)cnc1N1CCC(c2n[nH]c3c2C(O)(C(F)(F)F)CC(=O)N3)CC1 (stereo not drawn) [Example 101, 2-{4-[4-Hydroxy-6-oxo-4-(trifluoromethyl)-4,5,6,7-tetrahydro-1H-pyrazolo[3,4-b]pyridin-3-yl]piperidin-1-yl}-5-(trifluoromethyl)pyridine-3-carbonitrile] | 170 nM
9 | O=C1CC(O)(C(F)(F)F)c2c(C3CCN(c4ccc(F)cn4)CC3)n[nH]c2N1 (stereo not drawn) [Example 15, 3-[1-(5-Fluoropyridin-2-yl)piperidin-4-yl]-4-hydroxy-4-(trifluoromethyl)-1,4,5,7-tetrahydro-6H-pyrazolo[3,4-b]pyridin-6-one] | 250 nM
10 | COc1ccc(N2CCC(c3n[nH]c4c3C(O)(C(F)(F)F)CC(=O)N4)CC2)nn1 (stereo not drawn) [Example 28, 4-Hydroxy-3-[1-(6-methoxypyridazin-3-yl)piperidin-4-yl]-4-(trifluoromethyl)-1,4,5,7-tetrahydro-6H-pyrazolo[3,4-b]pyridin-6-one] | 300 nM
11 | O=C1CC(O)(C(F)(F)F)c2c(C3CCN(c4cc(I)c(C(F)(F)F)cn4)CC3)n[nH]c2N1 (stereo not drawn) [Example 102, 4-Hydroxy-3-{1-[4-iodo-5-(trifluoromethyl)pyridin-2-yl]piperidin-4-yl}-4-(trifluoromethyl)-1,4,5,7-tetrahydro-6H-pyrazolo[3,4-b]pyridin-6-one] | 21 nM
12 | O=C1CC(O)(C(F)(F)F)c2c(C3CCN(c4ccnc(C(F)(F)F)n4)CC3)n[nH]c2N1 (stereo not drawn) [Example 79, 4-Hydroxy-4-(trifluoromethyl)-3-{1-[2-(trifluoromethyl)pyrimidin-4-yl]piperidin-4-yl}-1,4,5,7-tetrahydro-6H-pyrazolo[3,4-b]pyridin-6-one] | 300 nM
13 | O=C1CC(O)(C(F)(F)F)c2c(C3CCN(c4ccccc4)CC3)n[nH]c2N1 (stereo not drawn) [Example 1, 4-Hydroxy-3-(1-phenylpiperidin-4-yl)-4-(trifluoromethyl)-1,4,5,7-tetrahydro-6H-pyrazolo[3,4-b]pyridin-6-one] | 1510 nM
14 | Cc1cccnc1N1CCC(c2n[nH]c3c2C(O)(C(F)(F)F)CC(=O)N3)CC1 (stereo not drawn) [Example 6, 4-Hydroxy-3-[1-(3-methylpyridin-2-yl)piperidin-4-yl]-4-(trifluoromethyl)-1,4,5,7-tetrahydro-6H-pyrazolo[3,4-b]pyridin-6-one] | 1260 nM
15 | O=C1CC(O)(C(F)(F)F)c2c(C3CCN(c4ccc(C(F)(F)F)nc4)CC3)n[nH]c2N1 (stereo not drawn) [Example 41, 4-Hydroxy-4-(trifluoromethyl)-3-{1-[6-(trifluoromethyl)pyridin-3-yl]piperidin-4-yl}-1,4,5,7-tetrahydro-6H-pyrazolo[3,4-b]pyridin-6-one] | 26 nM
16 | O=C1CC(O)(C(F)(F)F)c2c(C3CCN(c4nc(C(F)(F)F)c(-c5nc(C(F)(F)F)cs5)s4)CC3)n[nH]c2N1 (stereo not drawn) [Compound 48-b, 3-{1-[4,4′-bis(trifluoromethyl)-2,5′-bi-1,3-thiazol-2′-yl]piperidin-4-yl}-4-hydroxy-4-(trifluoromethyl)-1,4,5,7-tetrahydro-6H-pyrazolo[3,4-b]pyridin-6-one] | 46 nM
17 | CC(C)Oc1ccc(N2CCC(c3n[nH]c4c3C(O)(C(F)(F)F)CC(=O)N4)CC2)cn1 (stereo not drawn) [Example 57, 4-Hydroxy-3-{1-[6-(propan-2-yloxy)pyridin-3-yl]piperidin-4-yl}-4-(trifluoromethyl)-1,4,5,7-tetrahydro-6H-pyrazolo[3,4-b]pyridin-6-one] | 100 nM
18 | O=C1CC(O)(C(F)(F)F)c2c(C3CCN(c4cnc(C(F)(F)F)cn4)CC3)n[nH]c2N1 (stereo not drawn) [Example 46, 4-Hydroxy-4-(trifluoromethyl)-3-{1-[5-(trifluoromethyl)pyrazin-2-yl]piperidin-4-yl}-1,4,5,7-tetrahydro-6H-pyrazolo[3,4-b]pyridin-6-one] | 12 nM
19 | N#Cc1cnc(N2CCC(c3n[nH]c4c3C(O)(C(F)(F)F)CC(=O)N4)CC2)cc1C(F)(F)F (stereo not drawn) [Example 95, 6-{4-[4-Hydroxy-6-oxo-4-(trifluoromethyl)-4,5,6,7-tetrahydro-1H-pyrazolo[3,4-b]pyridin-3-yl]piperidin-1-yl}-4-(trifluoromethyl)pyridine-3-carbonitrile] | 37 nM
20 | O=C1CC(O)(C(F)(F)F)c2c(C3CCN(c4ccc(C(F)(F)F)c(F)n4)CC3)n[nH]c2N1 (stereo not drawn) [Example 97, 3-{1-[6-Fluoro-5-(trifluoromethyl)pyridin-2-yl]piperidin-4-yl}-4-hydroxy-4-(trifluoromethyl)-1,4,5,7-tetrahydro-6H-pyrazolo[3,4-b]pyridin-6-one] | 35 nM
21 | Cc1cc(N2CCC(c3n[nH]c4c3C(O)(C(F)(F)F)CC(=O)N4)CC2)ncc1C#N (stereo not drawn) [Example 42, 6-{4-[4-Hydroxy-6-oxo-4-(trifluoromethyl)-4,5,6,7-tetrahydro-1H-pyrazolo[3,4-b]pyridin-3-yl]piperidin-1-yl}-4-methylpyridine-3-carbonitrile] | 140 nM

— patent US9150575B2, “Piperidinylpyrazolopyridine derivative” (Daiichi Sankyo Company, Limited, priority 2012, dated 2015)
